Laboratory results from ChEMBL document CHEMBL1177838, “Synthesis and antiproliferative activity of indolizine derivatives incorporating a cyclopropylcarbonyl group against Hep-G2 cancer cell line” (Eur J Med Chem, 2010).
Converted amounts (≈) assume the structure as drawn.

Tests used:
HepG2 = experiment: cells; conditions: Homo sapiens, HepG2, 48 h
Description: Cytotoxicity against human HepG2 cells after 48 hrs by MTT assay

[1] = molecular target: Epidermal growth factor receptor (Homo sapiens, UniProt P00533); experiment: Inhibition of human EGFR autophosphorylation expressed in Sf9 cells DELFIA assay; assay type: cell-based
Chain of Epidermal growth factor receptor (P00533 whole entry): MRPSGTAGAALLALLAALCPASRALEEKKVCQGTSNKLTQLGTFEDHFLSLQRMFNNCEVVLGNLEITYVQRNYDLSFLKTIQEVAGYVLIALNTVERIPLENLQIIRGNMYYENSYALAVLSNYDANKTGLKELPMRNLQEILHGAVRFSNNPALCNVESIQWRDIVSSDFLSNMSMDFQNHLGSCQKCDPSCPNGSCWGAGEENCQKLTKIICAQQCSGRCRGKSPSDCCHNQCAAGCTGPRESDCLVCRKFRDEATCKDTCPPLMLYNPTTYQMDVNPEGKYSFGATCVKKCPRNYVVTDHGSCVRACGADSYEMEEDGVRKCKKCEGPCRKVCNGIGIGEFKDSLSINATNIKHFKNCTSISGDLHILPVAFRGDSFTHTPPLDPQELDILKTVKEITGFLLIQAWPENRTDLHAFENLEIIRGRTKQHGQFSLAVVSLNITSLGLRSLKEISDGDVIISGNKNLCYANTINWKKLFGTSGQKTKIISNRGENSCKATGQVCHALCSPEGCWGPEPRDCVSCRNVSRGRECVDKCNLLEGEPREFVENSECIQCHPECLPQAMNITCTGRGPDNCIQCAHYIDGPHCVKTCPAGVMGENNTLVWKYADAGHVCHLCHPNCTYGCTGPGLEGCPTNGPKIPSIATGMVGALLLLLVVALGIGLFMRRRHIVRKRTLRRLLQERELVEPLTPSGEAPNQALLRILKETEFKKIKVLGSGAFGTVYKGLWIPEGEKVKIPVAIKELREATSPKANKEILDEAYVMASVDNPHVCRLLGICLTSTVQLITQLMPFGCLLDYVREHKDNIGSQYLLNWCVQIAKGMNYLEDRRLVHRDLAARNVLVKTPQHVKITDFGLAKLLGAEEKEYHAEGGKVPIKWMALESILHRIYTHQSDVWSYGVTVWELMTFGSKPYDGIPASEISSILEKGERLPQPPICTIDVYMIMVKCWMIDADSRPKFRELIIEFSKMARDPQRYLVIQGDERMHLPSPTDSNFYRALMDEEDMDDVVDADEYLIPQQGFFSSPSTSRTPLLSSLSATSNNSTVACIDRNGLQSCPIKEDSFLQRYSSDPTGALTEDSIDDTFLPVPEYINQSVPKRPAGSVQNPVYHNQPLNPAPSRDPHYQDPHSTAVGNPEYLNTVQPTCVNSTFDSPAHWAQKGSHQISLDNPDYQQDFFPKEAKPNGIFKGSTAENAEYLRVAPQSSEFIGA

| IC50 (HepG2) | IC50 [1] | Compound |
| --- | --- | --- |
| 9.3 µg/mL (≈ 31.7 µM) | – | COC(=O)c1cc(C(=O)C2CC2)n2ccc3ccccc3c12 |
| 25 µg/mL (≈ 97.2 µM) | – | COC(=O)c1cc(C(=O)C2CC2)n2ccc(C)cc12 |
| 25 µg/mL (≈ 88.2 µM) | – | COC(=O)c1cc(C(=O)C2CC2)n2c1ccc1nccn12 |
| 21 µg/mL (≈ 93.6 µM) | – | Cc1ccn2c(C(=O)C3CC3)cc(C#N)c2c1 |
| 0.29 µg/mL (≈ 0.845 µM) | – | CCOC(=O)c1c(C(=O)OCC)c2cc(C)ccn2c1C(=O)C1CC1 |
| 0.2 µg/mL (≈ 0.66 µM) | 85 nM | Cc1ccc(Br)c2c(C#N)cc(C(=O)C3CC3)n12 |
| 27 µg/mL (≈ 76.8 µM) | – | COC(=O)c1c(C(=O)OC)c2c3ccccc3ccn2c1C(=O)C1CC1 |
| 4.3 µg/mL (≈ 16.5 µM) | – | N#Cc1cc(C(=O)C2CC2)n2ccc3ccccc3c12 |
| 0.48 µg/mL (≈ 1.45 µM) | – | O=C(c1c2c(c3ccccn13)C(=O)N(c1ccccc1)C2=O)C1CC1 |
| 4.6 µg/mL (≈ 15.7 µM) | – | COC(=O)c1cc(C(=O)C2CC2)n2c1ccc1ccccc12 |
| 0.32 µg/mL (≈ 1.52 µM) | – | N#Cc1cc(C(=O)C2CC2)n2ccccc12 |
| 2.1 µg/mL (≈ 8.07 µM) | – | N#Cc1cc(C(=O)C2CC2)n2c1ccc1ccccc12 |
| 6.6 µg/mL (≈ 27.1 µM) | – | COC(=O)c1cc(C(=O)C2CC2)n2ccccc12 |
| 0.56 µg/mL (≈ 1.84 µM) | – | O=C(Nc1ccccc1)c1cc(C(=O)C2CC2)n2ccccc12 |
| 32 µg/mL (≈ 97.2 µM) | – | CCOC(=O)c1c(C(=O)OCC)c2ccccn2c1C(=O)C1CC1 |
| 1.1 µg/mL (≈ 3.27 µM) | – | COC(=O)c1cc(C(=O)C2CC2)n2c(C)ccc(Br)c12 |
| 1.8 µg/mL (≈ 6.23 µM) | – | N#Cc1cc(C(=O)C2CC2)n2c(Br)cccc12 |
| 15 µg/mL (≈ 59.9 µM) | – | N#Cc1cc(C(=O)C2CC2)n2c1ccc1nccn12 |
| 2.5 µg/mL (≈ 7.76 µM) | – | COC(=O)c1cc(C(=O)C2CC2)n2c(Br)cccc12 |
